The record followed here is PubChem BioAssay (NCI).

Where “and” joins values, the source holds several entries; their conditions need not be identical. Identical values can stand only once.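 Where inhibition never reached the appropriate level, the endpoint shown equals the highest concentration tested. Otherwise, values were interpolated linearly from a five-concentration, 48-hour dose response in 96-well plates. The concentration for 50% growth inhibition is given as GI50. TGI: total growth inhibition.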

In the first test the test system is OVCAR-8 ovarian. Kind of test: NCI-60 cell line screen, 48 h.
`COC(=O)c1nc(NN)[nH]c(=O)c1CCCCCc1c(C(=O)OC)[nH]c(NN)cc1=O` gave a TGI greater than 100 µM.
For `CC1(C)C(=O)C(O)=CC2C1=CCC1C2(C)C(=O)CC2(C)C(C(C)(O)C(=O)CC(O)C(C)(C)O)C(O)CC12C` (stereo not drawn), the TGI is greater than 100 µM.
As for `CCc1ccccc1NC(=O)C(=O)C(C(=O)c1ccc(OC)cc1)c1ccc(OC)cc1` (stereo not drawn), the TGI is greater than 100 µM.
For the compound `C/C(=N/N(C=O)C[n+]1ccccc1)C(CN(CC(C)C)CC(C)C)C(=O)Nc1ccc(C)cc1C` (stereo not drawn), the TGI was greater than 100 µM.
In turn, `O=C(c1ccccc1)c1c(CC(O)c2cccnc2)n(C(=O)c2ccccc2)c2ccccc12` (stereo not drawn) gave a TGI greater than 100 µM.
In the case of `C=C(C)C1CC2C(C)=C(OC(C)=O)C1n1c(=O)c3cc4ccccc4cc3c(=O)n12` (stereo not drawn), the TGI was greater than 100 µM.
The compound `COc1ccc(C(C2=C(C)C(=O)c3ccccc3C2=O)c2ccc(C(C)C)cc(=O)c2O)cc1` (stereo not drawn) yielded a TGI of 45.7 µM.
In the case of `CC(C)N(C(=O)C12C3C4C1C1C2C3C41C(O)C(C)(C)C)C(C)C` (stereo not drawn), the TGI was greater than 50 µM.
For the compound `Clc1ccc(COC(Cn2ccnc2)c2ccc(Cl)cc2Cl)cc1` (stereo not drawn), the GI50 was 1.7 µM; the TGI was 10.1 µM and 28.7 µM and 32.8 µM.
`COC(=O)C1=C(OC(=O)c2ccc(Cl)cc2)C(C(=O)OC)[C@@]2(O)[C@@H](C(=O)OC)C(c3ccccc3C(F)(F)F)C[C@@H]1[C@@H]2C(=O)OC` (stereo partly drawn): the GI50 is 2.72 µM and the TGI is 9.87 µM.
Turning to `Nc1c(C(=O)Nc2ccc([As](=O)(O)O)cc2)cnc2nnnn12`, the TGI was greater than 100 µM.
Consider `CC(C)n1c(/C=C/[C@@H](O)C[C@@H](O)CC(=O)O)c(-c2ccc(F)cc2)c2ccccc21`, for which the GI50 is 1.32 µM and 0.842 µM; the TGI is greater than 100 µM.
`N#CC(C#N)SCc1ccccc1` registered a TGI of 49.9 µM.
In turn, `CCOc1ccc(NCC2CC/C(=C\C=C\c3ccccc3)C2=O)cc1` (stereo not drawn) registered a TGI of 42.9 µM.
On to `Cc1cc(N(CCNc2ccnc3cc(Cl)ccc23)Cc2ccc3c(c2)OCO3)nc(N2CCN(C)CC2)n1`, for which the GI50 was 3.18 µM and the TGI was 11.2 µM.

In another test the test system is HOP-92 NSCLC. The experiment in a line: NCI-60 cell line screen, 48 h.
The compound `O=C1c2ccccc2N2OC3(N4CCCC4)CCCC3C12c1ccccc1` (stereo not drawn) displayed a TGI greater than 100 µM.
As to `Nc1nc2c(ncn2Cc2ccccc2CCO)c(=O)[nH]1`, the TGI is greater than 100 µM.
`CCC1(Br)C(=O)NC(=O)N(C2CC(O)C(CO)O2)C1N=[N+]=[N-]` (stereo not drawn) showed a TGI greater than 100 µM.
On the same count and under the same terms, under `O=[N+]([O-])c1ccc(N=Nc2c(O)[nH]c3ccc([N+](=O)[O-])cc23)cc1` stands 25.6 µM; under `CC12CC3(C)CC(C)(C1)CC(N=[N+]=[N-])(C2)C3`, greater than 100 µM; under `Fc1cccc(Cl)c1C1SCc2nc3ccccc3n21` (stereo not drawn), 37.8 µM.
Turning to `COc1cc2nncc(Sc3cnnc4ccccc34)c2cc1OC`, the TGI is greater than 100 µM.
The compound `CC(=O)N(CCN)CCN` had a TGI greater than 10 µM.
Same read-out and setting: under `Cc1cc(O)c2c(c1)C(O)(c1ccc3c(c1O)C(=O)c1c(O)cc(C)cc1C3(O)C1OC(CO)C(O)C(O)C1O)c1cccc(O)c1C2=O` (stereo not drawn) stands 20.4 µM; under `COC(=O)c1nc(NN)[nH]c(=O)c1CCCCCc1c(C(=O)OC)[nH]c(NN)cc1=O`, greater than 100 µM.
As for `CC1(C)C(=O)C(O)=CC2C1=CCC1C2(C)C(=O)CC2(C)C(C(C)(O)C(=O)CC(O)C(C)(C)O)C(O)CC12C` (stereo not drawn), the TGI was 4.56 µM.
Regarding `C/C(=N/N(C=O)C[n+]1ccccc1)C(CN(CC(C)C)CC(C)C)C(=O)Nc1ccc(C)cc1C` (stereo not drawn), the TGI was greater than 100 µM.
With `O=C(c1ccccc1)c1c(CC(O)c2cccnc2)n(C(=O)c2ccccc2)c2ccccc12` (stereo not drawn), the TGI is 30.9 µM.
On to `C=C(C)C1CC2C(C)=C(OC(C)=O)C1n1c(=O)c3cc4ccccc4cc3c(=O)n12` (stereo not drawn), for which the TGI is greater than 100 µM.
For the compound `COc1ccc(C(C2=C(C)C(=O)c3ccccc3C2=O)c2ccc(C(C)C)cc(=O)c2O)cc1` (stereo not drawn), the TGI came to 10.3 µM.
For `CC(C)N(C(=O)C12C3C4C1C1C2C3C41C(O)C(C)(C)C)C(C)C` (stereo not drawn), the TGI was greater than 50 µM.
Turning to `Clc1ccc(COC(Cn2ccnc2)c2ccc(Cl)cc2Cl)cc1` (stereo not drawn), the GI50 is 0.511 µM; the TGI was 3.42 µM and 24.1 µM and 25.2 µM.
Consider `COC(=O)C1=C(OC(=O)c2ccc(Cl)cc2)C(C(=O)OC)[C@@]2(O)[C@@H](C(=O)OC)C(c3ccccc3C(F)(F)F)C[C@@H]1[C@@H]2C(=O)OC` (stereo partly drawn), for which the GI50 is 6.27 µM and the TGI is greater than 100 µM.
On to `Nc1c(C(=O)Nc2ccc([As](=O)(O)O)cc2)cnc2nnnn12`, for which the TGI was greater than 100 µM.
Take `CC(C)n1c(/C=C/[C@@H](O)C[C@@H](O)CC(=O)O)c(-c2ccc(F)cc2)c2ccccc21`: the GI50 was 0.0329 µM and 0.0368 µM; the TGI is 0.282 µM and 0.183 µM.
`N#CC(C#N)SCc1ccccc1` gave a TGI greater than 87.4 µM.
Take `CCOc1ccc(NCC2CC/C(=C\C=C\c3ccccc3)C2=O)cc1` (stereo not drawn): the TGI turned out to be 45.5 µM.
Regarding `Cc1cc(N(CCNc2ccnc3cc(Cl)ccc23)Cc2ccc3c(c2)OCO3)nc(N2CCN(C)CC2)n1`, the GI50 was 1.29 µM and the TGI worked out at 2.96 µM.

For another test, the system named is XF 498 CNS. The experiment in a line: NCI-60 cell line screen, 48 h.
`O=C1c2ccccc2N2OC3(N4CCCC4)CCCC3C12c1ccccc1` (stereo not drawn) showed a TGI greater than 100 µM.
Compound `COc1ccc(C2C(Cl)C(=O)N2n2cnc3ccccc3c2=O)cc1OC` (stereo not drawn) returned a TGI greater than 100 µM.
As to `Nc1nc2c(ncn2Cc2ccccc2CCO)c(=O)[nH]1`, the TGI was greater than 100 µM.
`CCC1(Br)C(=O)NC(=O)N(C2CC(O)C(CO)O2)C1N=[N+]=[N-]` (stereo not drawn) displayed a TGI greater than 100 µM.
On to `O=[N+]([O-])c1ccc(N=Nc2c(O)[nH]c3ccc([N+](=O)[O-])cc23)cc1`, for which the TGI was 32.3 µM.
With `CC12CC3(C)CC(C)(C1)CC(N=[N+]=[N-])(C2)C3`, the TGI is greater than 100 µM.
Consider `N=C(N)SCc1cn2ccccc2n1`, for which the TGI was greater than 100 µM.
On to `Fc1cccc(Cl)c1C1SCc2nc3ccccc3n21` (stereo not drawn), for which the TGI came out at 66.1 µM.
As for `COC(=O)C1=CCON(c2ccccc2)C1c1ccccc1` (stereo not drawn), the TGI is greater than 100 µM.
For the compound `CC(=O)N(CCN)CCN`, the TGI was greater than 100 µM.
Compound `Cc1cc(O)c2c(c1)C(O)(c1ccc3c(c1O)C(=O)c1c(O)cc(C)cc1C3(O)C1OC(CO)C(O)C(O)C1O)c1cccc(O)c1C2=O` (stereo not drawn) had a TGI of 16.7 µM.
Regarding `COC(=O)c1nc(NN)[nH]c(=O)c1CCCCCc1c(C(=O)OC)[nH]c(NN)cc1=O`, the TGI is greater than 100 µM.
Same read-out and setting: under `CC1(C)C(=O)C(O)=CC2C1=CCC1C2(C)C(=O)CC2(C)C(C(C)(O)C(=O)CC(O)C(C)(C)O)C(O)CC12C` (stereo not drawn) stands 6.34 µM.
Same read-out and setting: then `CCc1ccccc1NC(=O)C(=O)C(C(=O)c1ccc(OC)cc1)c1ccc(OC)cc1` (stereo not drawn), with greater than 100 µM.
Compound `O=C(c1ccccc1)c1c(CC(O)c2cccnc2)n(C(=O)c2ccccc2)c2ccccc12` (stereo not drawn) came in with a TGI of 27.1 µM.
Same read-out and setting: then `COc1ccc(C(C2=C(C)C(=O)c3ccccc3C2=O)c2ccc(C(C)C)cc(=O)c2O)cc1` (stereo not drawn), with 34.1 µM.
Take `CC(C)N(C(=O)C12C3C4C1C1C2C3C41C(O)C(C)(C)C)C(C)C` (stereo not drawn): the TGI is greater than 50 µM.
